{
  "source": "patent US10538535B2",
  "about": "“Antitumoral compounds” (priority 2017, dated 2020)",
  "key": {"A549 cells": {"system": "A549 cells", "assay": "cells", "conditions": "Homo sapiens, A549, 72 h", "how_it_was_run": "(§1)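 Human cancer lines grown in DMEM plus 10% FBS at 37° C. were plated at 5000 cells/well and left 18 hours before dosing. Test compounds (10 to 0.003 μg/mL, triplicates) acted for 72 hours, after which glutaraldehyde-fixed cells were stained with sulforhodamine B.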"}, "HT29 cells": {"system": "HT29 cells", "assay": "cells", "conditions": "Homo sapiens, HT-29, 72 h", "how_it_was_run": "as §1"}, "MDA-MB-231 cells": {"system": "MDA-MB-231 cells", "assay": "cells", "conditions": "Homo sapiens, MDA-MB-231, 72 h", "how_it_was_run": "as §1"}, "PSN1 cells": {"system": "PSN1 cells", "assay": "cells", "conditions": "Homo sapiens, PSN1, 72 h", "how_it_was_run": "as §1"}},
  "note": "Read-outs that look alike come from different tables or passages of the source.",
  "data": [
    {"molecule": "COc1c(C)cc2c(c1O)[C@@H]1[C@@H]3[C@@H]4SC[C@]5(N[C@@H](C)Cc6c5[nH]c5ccccc65)C(=O)OC[C@@H](c5c6c(c(C)c(OC(C)=O)c54)OCO6)N3[C@@H](O)[C@H](C2)N1C", "note": "[D]", "values": [
      {"measurement": "GI50", "setting": "A549 cells", "value": 12.5, "unit": "nM"},
      {"measurement": "CC50", "setting": "A549 cells; read-out: LC50", "value": "> 130", "unit": "nM"},
      {"measurement": "IC (TGI)", "setting": "A549 cells; read-out: TGI", "value": 28.6, "unit": "nM"},
      {"measurement": "GI50", "setting": "HT29 cells", "value": 10.3, "unit": "nM"},
      {"measurement": "CC50", "setting": "HT29 cells; read-out: LC50", "value": "> 130", "unit": "nM"},
      {"measurement": "IC (TGI)", "setting": "HT29 cells; read-out: TGI", "value": 23.4, "unit": "nM"},
      {"measurement": "GI50", "setting": "MDA-MB-231 cells", "value": 9.88, "unit": "nM"},
      {"measurement": "CC50", "setting": "MDA-MB-231 cells; read-out: LC50", "value": 53.3, "unit": "nM"},
      {"measurement": "IC (TGI)", "setting": "MDA-MB-231 cells; read-out: TGI", "value": 19.5, "unit": "nM"},
      {"measurement": "GI50", "setting": "PSN1 cells", "value": 20.8, "unit": "nM"},
      {"measurement": "CC50", "setting": "PSN1 cells; read-out: LC50", "value": 24.7, "unit": "nM"},
      {"measurement": "IC (TGI)", "setting": "PSN1 cells; read-out: TGI", "value": 22.1, "unit": "nM"},
      {"measurement": "Median Tumor Volume", "setting": "H460 tumors; Table 24, Day 0, iv Days 0, 7, 14", "value": 203.4, "unit": "mm^3"},
      {"measurement": "Median Tumor Volume", "setting": "H460 tumors; Table 24, Day 2, iv Days 0, 7, 14", "value": 367.3, "unit": "mm^3"},
      {"measurement": "Median Tumor Volume", "setting": "H460 tumors; Table 24, Day 7, iv Days 0, 7, 14", "value": 792.0, "unit": "mm^3"},
      {"measurement": "Median Tumor Volume", "setting": "H460 tumors; Table 24, Day 9, iv Days 0, 7, 14", "value": 854.6, "unit": "mm^3"},
      {"measurement": "Median Tumor Volume", "setting": "H460 tumors; Table 24, Day 12, iv Days 0, 7, 14", "value": 1026.7, "unit": "mm^3"},
      {"measurement": "Median Tumor Volume", "setting": "H460 tumors; Table 24, Day 14, iv Days 0, 7, 14", "value": 1175.8, "unit": "mm^3"},
      {"measurement": "Median Tumor Volume", "setting": "H460 tumors; Table 24, Day 16, iv Days 0, 7, 14", "value": 1322.1, "unit": "mm^3"},
      {"measurement": "Median Tumor Volume", "setting": "H460 tumors; Table 24, Day 19, iv Days 0, 7, 14", "value": 1581.1, "unit": "mm^3"},
      {"measurement": "Median Tumor Volume", "setting": "H460 tumors; Table 24, Day 21, iv Days 0, 7, 14", "value": 1789.3, "unit": "mm^3"},
      {"measurement": "Median Tumor Volume", "setting": "H460 tumors; Table 24, Day 23, iv Days 0, 7, 14", "value": 1966.5, "unit": "mm^3"},
      {"measurement": "Median Tumor Volume", "setting": "H460 tumors; Table 24, Day 26, iv Days 0, 7, 14", "value": 2080.7, "unit": "mm^3"},
      {"measurement": "Median Tumor Volume", "setting": "H460 tumors; iv, 0.5 mg/kg, 0 h", "value": 187.2, "unit": "mm^3"},
      {"measurement": "Median Tumor Volume", "setting": "H460 tumors; iv, 0.5 mg/kg, 48 h", "value": 329.7, "unit": "mm^3"},
      {"measurement": "Median Tumor Volume", "setting": "H460 tumors; iv, 0.5 mg/kg, 120 h", "value": 559.4, "unit": "mm^3"},
      {"measurement": "Median Tumor Volume", "setting": "H460 tumors; iv, 0.5 mg/kg, 168 h", "value": 756.5, "unit": "mm^3"},
      {"measurement": "Median Tumor Volume", "setting": "H460 tumors; iv, 0.5 mg/kg, 336 h", "value": 1626.8, "unit": "mm^3"},
      {"measurement": "Median Tumor Volume", "setting": "H460 tumors; iv, 0.5 mg/kg, 384 h", "value": 2025.0, "unit": "mm^3"},
      {"measurement": "Median Tumor Volume", "setting": "A2780 tumors; Table 26, Day 0, iv Days 0, 7, 14", "value": 190.1, "unit": "mm^3"},
      {"measurement": "Median Tumor Volume", "setting": "A2780 tumors; Table 26, Day 3, iv Days 0, 7, 14", "value": 319.6, "unit": "mm^3"},
      {"measurement": "Median Tumor Volume", "setting": "A2780 tumors; Table 26, Day 5, iv Days 0, 7, 14", "value": 514.4, "unit": "mm^3"},
      {"measurement": "Median Tumor Volume", "setting": "A2780 tumors; Table 26, Day 7, iv Days 0, 7, 14", "value": 897.4, "unit": "mm^3"},
      {"measurement": "Median Tumor Volume", "setting": "A2780 tumors; Table 26, Day 10, iv Days 0, 7, 14", "value": 1239.8, "unit": "mm^3"},
      {"measurement": "Median Tumor Volume", "setting": "A2780 tumors; Table 26, Day 12, iv Days 0, 7, 14", "value": 1656.2, "unit": "mm^3"},
      {"measurement": "Median Tumor Volume", "setting": "A2780 tumors; Table 26, Day 14, iv Days 0, 7, 14", "value": 1951.7, "unit": "mm^3"},
      {"measurement": "Median Tumor Volume", "setting": "A2780 tumors; Table 26, Day 17, iv Days 0, 7, 14", "value": 2121.7, "unit": "mm^3"},
      {"measurement": "Median Tumor Volume", "setting": "A2780 tumors; Table 26, Day 19, iv Days 0, 7, 14", "value": 2068.6, "unit": "mm^3"},
      {"measurement": "Median Tumor Volume", "setting": "A2780 tumors; iv, 0.5 mg/kg, 0 h", "value": 168.8, "unit": "mm^3"},
      {"measurement": "Median Tumor Volume", "setting": "A2780 tumors; iv, 0.5 mg/kg, 48 h", "value": 225.7, "unit": "mm^3"},
      {"measurement": "Median Tumor Volume", "setting": "A2780 tumors; iv, 0.5 mg/kg, 120 h", "value": 256.6, "unit": "mm^3"},
      {"measurement": "Median Tumor Volume", "setting": "A2780 tumors; iv, 0.5 mg/kg, 168 h", "value": 473.8, "unit": "mm^3"},
      {"measurement": "Median Tumor Volume", "setting": "A2780 tumors; iv, 0.5 mg/kg, 336 h", "value": 1129.3, "unit": "mm^3"},
      {"measurement": "Median Tumor Volume", "setting": "A2780 tumors; iv, 0.5 mg/kg, 384 h", "value": 1198.6, "unit": "mm^3"},
      {"measurement": "Median Tumor Volume", "setting": "A2780 tumors; iv, 0.5 mg/kg, 456 h", "value": 1649.6, "unit": "mm^3"},
      {"measurement": "Median Tumor Volume", "setting": "A2780 tumors; iv, 0.5 mg/kg, 504 h", "value": 2025.0, "unit": "mm^3"},
      {"measurement": "Median Tumor Volume", "setting": "HGC27 tumors; Table 28, Day 0, iv Days 0, 7, 14", "value": 157.4, "unit": "mm^3"},
      {"measurement": "Median Tumor Volume", "setting": "HGC27 tumors; Table 28, Day 2, iv Days 0, 7, 14", "value": 327.6, "unit": "mm^3"},
      {"measurement": "Median Tumor Volume", "setting": "HGC27 tumors; Table 28, Day 5, iv Days 0, 7, 14", "value": 439.6, "unit": "mm^3"},
      {"measurement": "Median Tumor Volume", "setting": "HGC27 tumors; Table 28, Day 7, iv Days 0, 7, 14", "value": 418.7, "unit": "mm^3"},
      {"measurement": "Median Tumor Volume", "setting": "HGC27 tumors; Table 28, Day 9, iv Days 0, 7, 14", "value": 567.9, "unit": "mm^3"},
      {"measurement": "Median Tumor Volume", "setting": "HGC27 tumors; Table 28, Day 12, iv Days 0, 7, 14", "value": 537.0, "unit": "mm^3"},
      {"measurement": "Median Tumor Volume", "setting": "HGC27 tumors; Table 28, Day 14, iv Days 0, 7, 14", "value": 654.6, "unit": "mm^3"},
      {"measurement": "Median Tumor Volume", "setting": "HGC27 tumors; Table 28, Day 16, iv Days 0, 7, 14", "value": 672.4, "unit": "mm^3"},
      {"measurement": "Median Tumor Volume", "setting": "HGC27 tumors; Table 28, Day 19, iv Days 0, 7, 14", "value": 843.0, "unit": "mm^3"},
      {"measurement": "Median Tumor Volume", "setting": "HGC27 tumors; Table 28, Day 21, iv Days 0, 7, 14", "value": 842.7, "unit": "mm^3"},
      {"measurement": "Median Tumor Volume", "setting": "HGC27 tumors; Table 28, Day 23, iv Days 0, 7, 14", "value": 963.7, "unit": "mm^3"},
      {"measurement": "Median Tumor Volume", "setting": "HGC27 tumors; Table 28, Day 26, iv Days 0, 7, 14", "value": 1203.3, "unit": "mm^3"},
      {"measurement": "Median Tumor Volume", "setting": "HGC27 tumors; Table 28, Day 28, iv Days 0, 7, 14", "value": 1589.7, "unit": "mm^3"},
      {"measurement": "Median Tumor Volume", "setting": "HGC27 tumors; Table 28, Day 30, iv Days 0, 7, 14", "value": 1777.6, "unit": "mm^3"},
      {"measurement": "Median Tumor Volume", "setting": "HGC27 tumors; Table 28, Day 33, iv Days 0, 7, 14", "value": 2146.2, "unit": "mm^3"},
      {"measurement": "Median Tumor Volume", "setting": "HGC27 tumors; iv, 0.5 mg/kg, 0 h", "value": 194.0, "unit": "mm^3"},
      {"measurement": "Median Tumor Volume", "setting": "HGC27 tumors; iv, 0.5 mg/kg, 48 h", "value": 324.2, "unit": "mm^3"},
      {"measurement": "Median Tumor Volume", "setting": "HGC27 tumors; iv, 0.5 mg/kg, 120 h", "value": 561.6, "unit": "mm^3"},
      {"measurement": "Median Tumor Volume", "setting": "HGC27 tumors; iv, 0.5 mg/kg, 168 h", "value": 504.2, "unit": "mm^3"},
      {"measurement": "Median Tumor Volume", "setting": "HGC27 tumors; iv, 0.5 mg/kg, 336 h", "value": 1056.8, "unit": "mm^3"}
    ]}
  ]
}
